Laboratory results published in the supplement of paper PMC10307832.

What follows are cell lines tested with CCCS(=O)(=O)Nc1ccc(F)c(C(=O)c2c[nH]c3ncc(-c4ccc(Cl)cc4)cc23)c1F [Vemurafenib] + CCNC(=O)c1noc(-c2cc(C(C)C)c(O)cc2O)c1-c1ccc(CN2CCOCC2)cc1 [Luminespib] (partner 0.01 µM) (assay: relative viability (nuclei count vs DMSO), 5 days (fraction); higher = more cells survive). Conditions: first compound 0.03162 µM.
Outline: (§1)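 Dosing by pin tool came one day after lung cancer cell lines were seeded in 1536-well plates, using either one drug or a fixed anchor-drug dose plus five library-drug doses (not always all listed) in √10 steps. After 5 days, nuclei were counted on 4× images. Relative viability is treated-well nuclei count divided by vehicle-well nuclei count, and values are medians of duplicate plates.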
Cell Line NCI-H2126 has a relative viability of 0.847.
Cell Line EPLC-272H has a relative viability of 0.316.
Cell Line NCI-H1755 has a relative viability of 0.442.
NCI-H2023 showed a relative viability of 0.731.
NCI-H1623 showed a relative viability of 0.631.
NCI-H1793 showed a relative viability of 0.16.
NCI-H2342 was tested, and the relative viability was 0.609.
H3255 was tested, and the relative viability was 0.837.
For NCI-H1975, the relative viability was 0.295.
PC-14 was tested, and the relative viability was 0.234.
For NCI-H1437, the relative viability was 1.09.
Work on HOP-62 yielded a relative viability of 0.902.
Cell Line HCC-44 has a relative viability of 0.915.
Work on BEN yielded a relative viability of 0.382.
LOU-NH91 gave a relative viability of 0.301.
For NCI-H661, the relative viability was 0.979.
NCI-H1651 showed a relative viability of 0.91.
With PC-3 [JPC-3] the relative viability was 0.671.
Cell Line SW 1573 has a relative viability of 0.16.
LK-2 showed a relative viability of 0.19.
NCI-H2405 was tested, and the relative viability was 0.667.
NCI-H1993 gave a relative viability of 0.465.
For ChaGo-K-1, the relative viability was 0.555.
NCI-H1355 gave a relative viability of 0.664.
NCI-H1915 gave a relative viability of 0.698.
NCI-H838 gave a relative viability of 0.291.
A-427 showed a relative viability of 0.846.
NCI-H2009 gave a relative viability of 0.93.
NCI-H2170 gave a relative viability of 0.58.
Cell Line NCI-H522 has a relative viability of 0.96.
NCI-H1563 was tested, and the relative viability was 0.505.
CAL-12T showed a relative viability of 0.375.
For NCI-H2228, the relative viability was 0.148.
Work on SW 900 yielded a relative viability of 0.168.

Same assay, conditions: first compound 0.1 µM
In the case of NCI-H2126, the relative viability is reported as 0.905.
Work on EPLC-272H yielded a relative viability of 0.0941.
NCI-H1755 was tested, and the relative viability was 0.574.
Work on NCI-H2023 yielded a relative viability of 0.628.
In the case of NCI-H1650, the relative viability is reported as 0.205.
With NCI-H2342 the relative viability was 0.622.
In the case of NCI-H1975, the relative viability is reported as 0.219.
With NCI-H1437 the relative viability was 1.07.
HOP-62 showed a relative viability of 0.843.
HCC-44 was tested, and the relative viability was 1.19.
BEN showed a relative viability of 0.302.
NCI-H661 showed a relative viability of 0.806.
Work on NCI-H1651 yielded a relative viability of 1.05.
For SW 1573, the relative viability was 0.583.
With LK-2 the relative viability was 0.188.
For NCI-H2405, the relative viability was 0.625.
With ChaGo-K-1 the relative viability was 0.45.
For NCI-H1355, the relative viability was 0.662.
NCI-H1915 showed a relative viability of 0.727.
Cell Line NCI-H838 has a relative viability of 0.349.
A-427 gave a relative viability of 0.919.
With NCI-H2009 the relative viability was 0.912.
NCI-H2170 was tested, and the relative viability was 0.486.
Work on NCI-H522 yielded a relative viability of 1.14.
Cell Line NCI-H1563 has a relative viability of 0.475.
Work on CAL-12T yielded a relative viability of 0.345.
NCI-H2228 was tested, and the relative viability was 0.161.
SW 900 gave a relative viability of 0.174.

Same assay, conditions: first compound 0.3162 µM
EPLC-272H was tested, and the relative viability was 0.494.
In the case of NCI-H1755, the relative viability is reported as 0.332.
In the case of NCI-H2023, the relative viability is reported as 0.827.
Cell Line NCI-H1623 has a relative viability of 0.679.
Work on NCI-H1793 yielded a relative viability of 0.173.
With NCI-H2342 the relative viability was 0.792.
Work on H3255 yielded a relative viability of 0.824.
With PC-14 the relative viability was 0.18.
With NCI-H1437 the relative viability was 1.2.
In the case of HOP-62, the relative viability is reported as 0.931.
Work on NCI-H661 yielded a relative viability of 0.897.
NCI-H1651 was tested, and the relative viability was 0.946.
Cell Line PC-3 [JPC-3] has a relative viability of 0.724.
Cell Line SW 1573 has a relative viability of 0.377.
LK-2 was tested, and the relative viability was 0.131.
With NCI-H1993 the relative viability was 0.773.
In the case of ChaGo-K-1, the relative viability is reported as 0.548.
Cell Line NCI-H1355 has a relative viability of 0.696.
NCI-H1915 showed a relative viability of 0.795.
With A-427 the relative viability was 0.627.
For NCI-H2009, the relative viability was 0.861.
NCI-H2170 showed a relative viability of 0.559.
NCI-H1563 was tested, and the relative viability was 0.563.
In the case of CAL-12T, the relative viability is reported as 0.228.
In the case of NCI-H2228, the relative viability is reported as 0.19.
For SW 900, the relative viability was 0.207.

Same assay, conditions: first compound 1 µM
With NCI-H2126 the relative viability was 0.972.
EPLC-272H showed a relative viability of 0.228.
NCI-H1755 gave a relative viability of 0.462.
NCI-H2023 was tested, and the relative viability was 0.766.
For NCI-H1623, the relative viability was 0.414.
With NCI-H1650 the relative viability was 0.215.
For NCI-H1793, the relative viability was 0.166.
NCI-H2342 showed a relative viability of 0.701.
With H3255 the relative viability was 0.809.
Work on NCI-H1975 yielded a relative viability of 0.287.
In the case of PC-14, the relative viability is reported as 0.148.
Cell Line NCI-H1437 has a relative viability of 1.12.
HOP-62 was tested, and the relative viability was 0.971.
HCC-44 was tested, and the relative viability was 1.07.
In the case of BEN, the relative viability is reported as 0.274.
LOU-NH91 showed a relative viability of 0.412.
With NCI-H661 the relative viability was 0.953.
NCI-H1651 was tested, and the relative viability was 0.84.
Work on PC-3 [JPC-3] yielded a relative viability of 0.782.
SW 1573 was tested, and the relative viability was 0.194.
Work on LK-2 yielded a relative viability of 0.181.
In the case of NCI-H2405, the relative viability is reported as 0.576.
In the case of NCI-H1993, the relative viability is reported as 0.86.
For ChaGo-K-1, the relative viability was 0.551.
NCI-H1355 gave a relative viability of 0.672.
Work on NCI-H1915 yielded a relative viability of 0.636.
NCI-H838 was tested, and the relative viability was 0.352.
A-427 gave a relative viability of 0.87.
For NCI-H2009, the relative viability was 0.921.
ABC-1 gave a relative viability of 0.779.
NCI-H2170 was tested, and the relative viability was 0.545.
In the case of NCI-H522, the relative viability is reported as 1.13.
NCI-H1563 gave a relative viability of 0.59.
CAL-12T gave a relative viability of 0.847.
Cell Line NCI-H2228 has a relative viability of 0.172.
Cell Line SW 900 has a relative viability of 0.208.

What follows are cell lines tested with CCCS(=O)(=O)Nc1ccc(F)c(C(=O)c2c[nH]c3ncc(-c4ccc(Cl)cc4)cc23)c1F [Vemurafenib] + C[C@]1(O)C[C@@H](c2nc(-c3ccc4ccc(-c5ccccc5)nc4c3)c3c(N)nccn32)C1 [Linsitinib] (partner 1 µM) in the same assay as above. Conditions: first compound 0.03162 µM.
Outline: as §1
In the case of NCI-H2126, the relative viability is reported as 0.804.
For EPLC-272H, the relative viability was 1.03.
NCI-H1755 showed a relative viability of 0.946.
Work on NCI-H2023 yielded a relative viability of 0.655.
Cell Line NCI-H1793 has a relative viability of 0.877.
With H3255 the relative viability was 1.
In the case of NCI-H1975, the relative viability is reported as 1.
PC-14 showed a relative viability of 0.93.
With NCI-H1299 the relative viability was 1.02.
NCI-H1437 was tested, and the relative viability was 0.972.
In the case of HOP-62, the relative viability is reported as 0.78.
HCC-44 gave a relative viability of 0.612.
Cell Line BEN has a relative viability of 0.913.
In the case of LOU-NH91, the relative viability is reported as 0.864.
NCI-H661 was tested, and the relative viability was 0.573.
In the case of NCI-H1651, the relative viability is reported as 0.869.
With PC-3 [JPC-3] the relative viability was 0.909.
SW 1573 showed a relative viability of 0.791.
With LK-2 the relative viability was 0.409.
Work on NCI-H2405 yielded a relative viability of 0.952.
In the case of NCI-H1703, the relative viability is reported as 0.738.
NCI-H1993 gave a relative viability of 0.668.
Work on NCI-H1355 yielded a relative viability of 0.713.
Work on HCC-366 yielded a relative viability of 0.637.
In the case of NCI-H1915, the relative viability is reported as 1.05.
NCI-H838 was tested, and the relative viability was 0.979.
For A-427, the relative viability was 1.09.
In the case of NCI-H2009, the relative viability is reported as 1.19.
ABC-1 gave a relative viability of 0.711.
NCI-H1563 showed a relative viability of 1.2.
CAL-12T showed a relative viability of 0.723.
